Active and inactive are the calls of the source.
What was measured:
[1] = biological target: Serine/threonine-protein kinase PAK 2 (Homo sapiens, UniProt Q13177)
[2] = biological target: T1, Serine/threonine-protein kinase ULK1 (Homo sapiens, UniProt O75385)
T1 sequence (O75385 whole entry): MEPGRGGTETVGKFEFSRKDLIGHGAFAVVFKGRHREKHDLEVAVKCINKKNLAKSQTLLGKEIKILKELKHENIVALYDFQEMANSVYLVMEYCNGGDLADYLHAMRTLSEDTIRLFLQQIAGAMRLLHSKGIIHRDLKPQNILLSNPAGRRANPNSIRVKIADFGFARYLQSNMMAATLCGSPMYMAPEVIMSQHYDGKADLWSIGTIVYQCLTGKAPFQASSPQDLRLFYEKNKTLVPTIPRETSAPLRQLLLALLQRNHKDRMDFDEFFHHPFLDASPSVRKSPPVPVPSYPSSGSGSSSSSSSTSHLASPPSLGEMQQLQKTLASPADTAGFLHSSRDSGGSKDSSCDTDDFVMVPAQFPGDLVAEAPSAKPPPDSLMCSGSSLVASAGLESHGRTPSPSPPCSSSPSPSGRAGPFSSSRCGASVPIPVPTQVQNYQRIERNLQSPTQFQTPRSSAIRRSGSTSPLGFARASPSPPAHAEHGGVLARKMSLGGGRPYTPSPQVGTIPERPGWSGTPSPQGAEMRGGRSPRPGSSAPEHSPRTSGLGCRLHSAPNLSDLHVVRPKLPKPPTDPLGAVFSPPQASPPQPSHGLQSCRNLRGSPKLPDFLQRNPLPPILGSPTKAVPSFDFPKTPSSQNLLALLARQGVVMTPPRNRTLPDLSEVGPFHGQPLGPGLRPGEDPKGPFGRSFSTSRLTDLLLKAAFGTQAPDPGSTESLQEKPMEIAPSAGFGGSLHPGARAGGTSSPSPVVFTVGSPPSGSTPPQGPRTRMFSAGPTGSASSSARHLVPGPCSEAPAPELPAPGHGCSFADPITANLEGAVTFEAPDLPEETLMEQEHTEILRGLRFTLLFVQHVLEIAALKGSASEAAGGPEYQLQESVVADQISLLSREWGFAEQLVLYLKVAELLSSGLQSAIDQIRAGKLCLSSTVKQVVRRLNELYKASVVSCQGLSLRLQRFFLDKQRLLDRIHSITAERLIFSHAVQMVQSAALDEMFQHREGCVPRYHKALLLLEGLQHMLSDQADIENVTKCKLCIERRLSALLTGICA

[3] = biological target: Tyrosine-protein kinase Yes (Homo sapiens, UniProt P07947)
Sequence of Tyrosine-protein kinase Yes (P07947 whole entry): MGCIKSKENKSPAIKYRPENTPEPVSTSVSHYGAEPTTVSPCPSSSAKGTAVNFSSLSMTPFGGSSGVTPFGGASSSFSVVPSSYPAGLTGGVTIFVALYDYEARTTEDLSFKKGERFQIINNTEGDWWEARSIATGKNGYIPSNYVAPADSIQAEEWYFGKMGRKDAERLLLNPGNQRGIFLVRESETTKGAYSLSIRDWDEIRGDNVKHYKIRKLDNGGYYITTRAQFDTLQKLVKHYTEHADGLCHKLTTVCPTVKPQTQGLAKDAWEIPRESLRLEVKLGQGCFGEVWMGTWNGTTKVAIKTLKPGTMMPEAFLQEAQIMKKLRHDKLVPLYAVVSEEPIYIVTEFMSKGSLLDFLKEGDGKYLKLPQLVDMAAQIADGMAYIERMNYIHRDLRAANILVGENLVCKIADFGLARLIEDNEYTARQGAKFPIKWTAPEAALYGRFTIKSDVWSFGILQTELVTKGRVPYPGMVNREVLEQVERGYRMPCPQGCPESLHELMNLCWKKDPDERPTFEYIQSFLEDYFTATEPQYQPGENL

[4] = biological target: Serine/threonine-protein kinase B-raf (Homo sapiens, UniProt P15056)
Sequence of Serine/threonine-protein kinase B-raf (P15056 whole entry): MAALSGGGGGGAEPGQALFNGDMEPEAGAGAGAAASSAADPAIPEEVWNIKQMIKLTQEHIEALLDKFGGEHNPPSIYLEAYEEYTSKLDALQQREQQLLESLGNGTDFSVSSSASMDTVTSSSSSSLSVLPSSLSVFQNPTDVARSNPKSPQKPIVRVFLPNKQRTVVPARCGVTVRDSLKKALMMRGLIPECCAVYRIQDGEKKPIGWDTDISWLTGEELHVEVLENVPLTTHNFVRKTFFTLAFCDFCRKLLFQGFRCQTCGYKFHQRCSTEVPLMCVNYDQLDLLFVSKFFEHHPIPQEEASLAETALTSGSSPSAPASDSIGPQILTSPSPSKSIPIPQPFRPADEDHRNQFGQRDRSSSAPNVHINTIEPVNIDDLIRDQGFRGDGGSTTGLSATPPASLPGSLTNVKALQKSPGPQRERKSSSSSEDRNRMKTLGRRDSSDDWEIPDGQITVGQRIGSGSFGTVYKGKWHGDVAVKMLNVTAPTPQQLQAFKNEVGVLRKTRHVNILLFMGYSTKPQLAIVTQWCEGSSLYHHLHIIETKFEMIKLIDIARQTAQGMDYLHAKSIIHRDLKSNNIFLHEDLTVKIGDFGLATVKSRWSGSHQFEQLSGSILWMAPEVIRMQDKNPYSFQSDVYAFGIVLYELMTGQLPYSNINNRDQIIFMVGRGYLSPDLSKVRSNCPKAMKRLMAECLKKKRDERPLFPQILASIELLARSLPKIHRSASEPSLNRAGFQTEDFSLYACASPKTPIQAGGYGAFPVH

[5] = biological target: T2, Phosphatidylinositol 5-phosphate 4-kinase type-2 gamma (Homo sapiens, UniProt Q8TBX8)
T2 sequence (Q8TBX8 whole entry): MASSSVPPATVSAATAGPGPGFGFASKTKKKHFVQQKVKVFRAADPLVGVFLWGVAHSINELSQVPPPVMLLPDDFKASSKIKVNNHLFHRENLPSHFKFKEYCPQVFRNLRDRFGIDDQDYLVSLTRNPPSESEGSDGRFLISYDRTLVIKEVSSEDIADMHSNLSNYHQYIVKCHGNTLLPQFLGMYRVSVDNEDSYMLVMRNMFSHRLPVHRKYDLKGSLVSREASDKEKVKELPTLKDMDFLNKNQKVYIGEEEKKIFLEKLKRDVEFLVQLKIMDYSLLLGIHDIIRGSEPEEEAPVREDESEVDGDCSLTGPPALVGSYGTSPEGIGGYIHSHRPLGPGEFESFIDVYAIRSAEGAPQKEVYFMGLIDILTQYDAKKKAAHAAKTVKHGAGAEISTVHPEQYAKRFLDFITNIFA

[6] = biological target: cAMP-dependent protein kinase catalytic subunit alpha (Homo sapiens, UniProt P17612)
Ephrin type-B receptor 3 = biological target: T3, Ephrin type-B receptor 3 (Homo sapiens, UniProt P54753)
T3 sequence (P54753 whole entry): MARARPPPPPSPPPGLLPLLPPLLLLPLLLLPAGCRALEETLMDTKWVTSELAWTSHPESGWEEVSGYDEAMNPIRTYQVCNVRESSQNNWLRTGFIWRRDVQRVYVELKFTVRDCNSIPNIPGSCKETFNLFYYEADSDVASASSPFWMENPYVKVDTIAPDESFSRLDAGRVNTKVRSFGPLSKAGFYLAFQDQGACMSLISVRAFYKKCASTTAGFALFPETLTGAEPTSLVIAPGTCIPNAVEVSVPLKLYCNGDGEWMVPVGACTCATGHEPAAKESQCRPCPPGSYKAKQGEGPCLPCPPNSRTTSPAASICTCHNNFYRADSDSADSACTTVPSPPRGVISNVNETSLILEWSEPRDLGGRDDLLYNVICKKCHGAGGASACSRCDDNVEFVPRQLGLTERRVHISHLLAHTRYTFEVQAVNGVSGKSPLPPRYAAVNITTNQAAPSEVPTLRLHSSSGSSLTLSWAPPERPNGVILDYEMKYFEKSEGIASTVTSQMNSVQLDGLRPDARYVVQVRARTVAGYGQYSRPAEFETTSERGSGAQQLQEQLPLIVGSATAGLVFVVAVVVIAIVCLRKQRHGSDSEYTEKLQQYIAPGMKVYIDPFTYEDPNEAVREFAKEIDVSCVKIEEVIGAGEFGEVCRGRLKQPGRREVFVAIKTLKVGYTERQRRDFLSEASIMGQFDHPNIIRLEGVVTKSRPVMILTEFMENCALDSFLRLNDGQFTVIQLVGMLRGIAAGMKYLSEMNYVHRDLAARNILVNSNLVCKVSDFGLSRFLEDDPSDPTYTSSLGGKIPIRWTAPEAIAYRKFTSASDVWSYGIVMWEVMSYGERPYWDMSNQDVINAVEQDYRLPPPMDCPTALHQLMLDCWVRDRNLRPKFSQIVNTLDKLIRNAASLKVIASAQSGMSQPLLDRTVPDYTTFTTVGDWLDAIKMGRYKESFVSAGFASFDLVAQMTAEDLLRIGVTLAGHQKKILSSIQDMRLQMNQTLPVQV

[7] = biological target: Mitogen-activated protein kinase 9 (Homo sapiens, UniProt P45984)
Sequence of Mitogen-activated protein kinase 9 (P45984 whole entry): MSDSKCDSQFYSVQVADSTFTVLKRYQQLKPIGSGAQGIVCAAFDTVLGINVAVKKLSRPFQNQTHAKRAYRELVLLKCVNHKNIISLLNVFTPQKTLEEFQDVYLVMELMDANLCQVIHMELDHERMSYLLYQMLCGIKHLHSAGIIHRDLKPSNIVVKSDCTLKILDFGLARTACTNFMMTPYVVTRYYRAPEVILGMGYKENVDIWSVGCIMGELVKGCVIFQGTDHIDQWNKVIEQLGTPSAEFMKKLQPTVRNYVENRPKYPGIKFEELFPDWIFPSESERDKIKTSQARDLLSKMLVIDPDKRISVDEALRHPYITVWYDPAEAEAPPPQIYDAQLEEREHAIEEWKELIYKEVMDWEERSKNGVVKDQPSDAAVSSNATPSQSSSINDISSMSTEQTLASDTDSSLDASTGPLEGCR

[8] = biological target: GTP-binding nuclear protein Ran (Homo sapiens, UniProt P62826)
[9] = biological target: Cyclin-dependent kinase 4 (Homo sapiens, UniProt P11802)
Sequence of Cyclin-dependent kinase 4 (P11802 whole entry): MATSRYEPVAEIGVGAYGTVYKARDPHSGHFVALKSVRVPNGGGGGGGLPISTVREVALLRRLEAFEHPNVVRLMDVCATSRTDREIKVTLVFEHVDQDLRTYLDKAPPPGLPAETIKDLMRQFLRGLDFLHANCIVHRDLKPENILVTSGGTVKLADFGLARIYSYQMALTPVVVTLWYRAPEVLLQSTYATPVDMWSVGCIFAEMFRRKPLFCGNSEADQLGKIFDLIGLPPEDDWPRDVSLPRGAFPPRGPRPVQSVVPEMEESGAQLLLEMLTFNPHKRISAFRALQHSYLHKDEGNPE

[10] = biological target: Serine/threonine-protein kinase pim-1 (Homo sapiens, UniProt P11309)
Sequence of Serine/threonine-protein kinase pim-1 (P11309 whole entry): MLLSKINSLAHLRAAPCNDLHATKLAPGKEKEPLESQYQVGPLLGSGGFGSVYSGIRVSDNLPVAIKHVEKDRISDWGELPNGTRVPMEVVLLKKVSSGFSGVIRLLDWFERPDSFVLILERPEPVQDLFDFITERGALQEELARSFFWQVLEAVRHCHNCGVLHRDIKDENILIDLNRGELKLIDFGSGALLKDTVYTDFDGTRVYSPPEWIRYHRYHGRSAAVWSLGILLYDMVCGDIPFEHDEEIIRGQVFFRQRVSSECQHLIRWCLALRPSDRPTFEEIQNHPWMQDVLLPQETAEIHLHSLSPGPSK

[11] = biological target: Mitogen-activated protein kinase 7 (Homo sapiens, UniProt Q13164)
Sequence of Mitogen-activated protein kinase 7 (Q13164 whole entry): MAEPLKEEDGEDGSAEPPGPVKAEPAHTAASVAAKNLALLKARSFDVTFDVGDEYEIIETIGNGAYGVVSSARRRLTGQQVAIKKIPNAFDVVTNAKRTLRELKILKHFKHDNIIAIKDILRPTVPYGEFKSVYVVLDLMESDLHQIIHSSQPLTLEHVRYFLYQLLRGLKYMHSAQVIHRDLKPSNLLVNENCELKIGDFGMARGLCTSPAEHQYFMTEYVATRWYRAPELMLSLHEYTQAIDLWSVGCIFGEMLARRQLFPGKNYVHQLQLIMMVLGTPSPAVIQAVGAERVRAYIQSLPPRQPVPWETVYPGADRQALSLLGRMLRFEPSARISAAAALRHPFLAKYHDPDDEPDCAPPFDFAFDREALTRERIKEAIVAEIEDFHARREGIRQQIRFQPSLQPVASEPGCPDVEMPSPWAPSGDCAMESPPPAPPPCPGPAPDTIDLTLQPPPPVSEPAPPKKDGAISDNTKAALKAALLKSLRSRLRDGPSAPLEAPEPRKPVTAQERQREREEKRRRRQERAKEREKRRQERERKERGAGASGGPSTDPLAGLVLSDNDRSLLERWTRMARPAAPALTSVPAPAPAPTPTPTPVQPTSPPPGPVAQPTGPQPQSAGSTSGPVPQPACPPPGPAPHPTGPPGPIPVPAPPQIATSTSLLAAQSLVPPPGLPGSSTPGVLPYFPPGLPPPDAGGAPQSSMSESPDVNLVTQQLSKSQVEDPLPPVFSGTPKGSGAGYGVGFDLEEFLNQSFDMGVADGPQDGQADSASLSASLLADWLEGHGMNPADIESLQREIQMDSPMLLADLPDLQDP
Also: in the data inactive means no Kd found up to 30 µM.

Sequence of Serine/threonine-protein kinase PAK 2 (Q13177 whole entry): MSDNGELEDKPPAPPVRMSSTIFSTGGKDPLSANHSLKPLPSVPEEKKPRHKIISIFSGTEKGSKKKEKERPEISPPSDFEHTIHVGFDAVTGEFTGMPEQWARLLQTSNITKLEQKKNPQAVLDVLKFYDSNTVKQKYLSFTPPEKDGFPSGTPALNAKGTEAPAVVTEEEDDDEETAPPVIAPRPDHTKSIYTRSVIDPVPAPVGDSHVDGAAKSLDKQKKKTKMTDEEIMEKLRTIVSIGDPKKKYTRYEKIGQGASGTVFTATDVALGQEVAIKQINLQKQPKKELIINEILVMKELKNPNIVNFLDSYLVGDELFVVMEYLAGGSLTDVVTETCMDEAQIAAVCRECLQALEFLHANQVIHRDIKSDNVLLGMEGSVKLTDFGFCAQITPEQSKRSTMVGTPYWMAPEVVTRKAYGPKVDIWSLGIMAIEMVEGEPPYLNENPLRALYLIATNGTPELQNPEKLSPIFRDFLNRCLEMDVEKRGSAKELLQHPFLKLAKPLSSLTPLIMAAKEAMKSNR

Kd [1] | Kd [2] | Kd [3] | Kd [4] | Kd [5] | Kd [6] | Kd (Ephrin type-B receptor 3) | Kd [7] | Kd [8] | Kd [9] | Kd [10] | Kd [11] | SMILES
> 30 µM (inactive) | > 30 µM (inactive) | > 30 µM (inactive) | > 30 µM (inactive) | > 30 µM (inactive) | > 30 µM (inactive) | > 30 µM (inactive) | > 30 µM (inactive) | > 30 µM (inactive) | > 30 µM (inactive) | 0.022 µM (active) | – | O=c1[nH]c([C@@H]2CCCN2)nc2c1oc1ccc(Cl)cc12
> 30 µM (inactive) | > 30 µM (inactive) | > 30 µM (inactive) | > 30 µM (inactive) | > 30 µM (inactive) | > 30 µM (inactive) | > 30 µM (inactive) | > 30 µM (inactive) | > 30 µM (inactive) | > 30 µM (inactive) | > 30 µM (inactive) | > 30 µM (inactive) | CCc1cc2c(cc1N1CCC(N3CCOCC3)CC1)C(C)(C)c1[nH]c3cc(C#N)ccc3c1C2=O [ALECTINIB]
> 30 µM (inactive) | > 30 µM (inactive) | > 30 µM (inactive) | > 30 µM (inactive) | > 30 µM (inactive) | > 30 µM (inactive) | > 30 µM (inactive) | > 30 µM (inactive) | > 30 µM (inactive) | > 30 µM (inactive) | > 30 µM (inactive) | > 30 µM (inactive) | COc1ccc2c(OCc3nnc4ccc(-c5ccccc5)nn34)ccnc2c1 [AMG-208]
> 30 µM (inactive) | > 30 µM (inactive) | > 30 µM (inactive) | > 30 µM (inactive) | > 30 µM (inactive) | > 30 µM (inactive) | > 30 µM (inactive) | > 30 µM (inactive) | > 30 µM (inactive) | > 30 µM (inactive) | > 30 µM (inactive) | > 30 µM (inactive) | S=C(NCc1ccc2c(c1)OCO2)N1CCN(c2ncnc3c2oc2ccccc23)CC1 [AMUVATINIB]
> 30 µM (inactive) | > 30 µM (inactive) | > 30 µM (inactive) | > 30 µM (inactive) | > 30 µM (inactive) | > 30 µM (inactive) | > 30 µM (inactive) | > 30 µM (inactive) | > 30 µM (inactive) | > 30 µM (inactive) | > 30 µM (inactive) | > 30 µM (inactive) | Cc1cc(Nc2nc(N[C@@H](C)c3ncc(F)cn3)ncc2Cl)n[nH]1 [AZD-1480]
> 30 µM (inactive) | > 30 µM (inactive) | > 30 µM (inactive) | > 30 µM (inactive) | 4.79 µM (active) | > 30 µM (inactive) | > 30 µM (inactive) | > 30 µM (inactive) | > 30 µM (inactive) | > 30 µM (inactive) | > 30 µM (inactive) | > 30 µM (inactive) | COc1ccc(-c2ccc3ncc4c(c3c2)n(-c2ccc(N3CCNCC3)c(C(F)(F)F)c2)c(=O)n4C)cn1 [BGT-226 FREE BASE]
> 30 µM (inactive) | > 30 µM (inactive) | 1.03 µM (active) | > 30 µM (inactive) | > 30 µM (inactive) | 0.916 µM (active) | – | > 30 µM (inactive) | > 30 µM (inactive) | > 30 µM (inactive) | > 30 µM (inactive) | > 30 µM (inactive) | COc1cccc(Nc2ncnn3ccc(CN4CC[C@@H](N)[C@H](O)C4)c23)c1 [BMS-690514]
> 30 µM (inactive) | > 30 µM (inactive) | > 30 µM (inactive) | > 30 µM (inactive) | 2.9 µM (active) | > 30 µM (inactive) | > 30 µM (inactive) | > 30 µM (inactive) | > 30 µM (inactive) | > 30 µM (inactive) | > 30 µM (inactive) | > 30 µM (inactive) | COc1cc2nccc(Oc3ccc(NC(=O)C4(C(=O)Nc5ccc(F)cc5)CC4)cc3)c2cc1OC [CABOZANTINIB]
> 30 µM (inactive) | > 30 µM (inactive) | > 30 µM (inactive) | > 30 µM (inactive) | – | > 30 µM (inactive) | > 30 µM (inactive) | 1.53 µM (active) | > 30 µM (inactive) | > 30 µM (inactive) | > 30 µM (inactive) | > 30 µM (inactive) | COc1cc(Nc2ncc(F)c(Nc3ccc4c(n3)N(COP(=O)(O)O)C(=O)C(C)(C)O4)n2)cc(OC)c1OC [FOSTAMATINIB]
> 30 µM (inactive) | > 30 µM (inactive) | – | > 30 µM (inactive) | > 30 µM (inactive) | > 30 µM (inactive) | > 30 µM (inactive) | > 30 µM (inactive) | > 30 µM (inactive) | > 30 µM (inactive) | > 30 µM (inactive) | > 30 µM (inactive) | Cc1cc(C(=O)Nc2cc(Oc3ccc4nc(NC(=O)C5CC5)cn4n3)ccc2C)n(C)n1 [TAK-593]

SMILES | Kd [1] | Kd [2] | Kd [3] | Kd [4] | Kd [5] | Kd [6] | Kd (Ephrin type-B receptor 3) | Kd [7] | Kd [8] | Kd [9] | Kd [10] | Kd [11]
Cn1cc(-c2[nH]c3cc(NC(=O)[C@H](N)C4CCCCC4)cc4c3c2C=NNC4=O)cn1 | > 30 µM (inactive) | > 30 µM (inactive) | 0.623 µM (active) | > 30 µM (inactive) | > 30 µM (inactive) | > 30 µM (inactive) | > 30 µM (inactive) | > 30 µM (inactive) | > 30 µM (inactive) | > 30 µM (inactive) | > 30 µM (inactive) | > 30 µM (inactive)
NC[C@@](O)(c1ccc(Cl)cc1)c1ccc(-c2cn[nH]c2)cc1 [AT-13148] | > 30 µM (inactive) | – | > 30 µM (inactive) | > 30 µM (inactive) | > 30 µM (inactive) | 0.015 µM (active) | > 30 µM (inactive) | > 30 µM (inactive) | > 30 µM (inactive) | > 30 µM (inactive) | > 30 µM (inactive) | –

Reference: ChEMBL document CHEMBL3991601, “The target landscape of clinical kinase drugs” (Science, 2017)
